The values below come from patent publication US20050112128A1, “Inhibition of protein kinase c-mu (PKD) as a treatment for cardiac hypertrophy and heart failure” (Myogen, Inc. and Board of Regents, The University of Texas …, priority 2003, published 2005).

Entries after “also recorded” stand apart in the source; their conditions may differ.

Assay [1] concerns nuclear export of HDAC5 in COS cells. The assay is described as follows: GFP-HDAC5 nuclear export in transfected COS cells (fluorescence microscopy). In kind it is cell-based. The protocol:
(§1) FIGS. 1A-D—PKC-dependent nuclear export of HDAC5. FIG. 1A. COS cells were cultured on 6-well dishes, transfected with a GFP-HDAC5 expression vector (1 μg) and stimulated with the indicated compounds, as described in Materials and Methods. Sixty minutes after addition of compounds, GFP-HDAC5 distribution was determined by fluorescence microscopy. […] FIG. 1B. COS cells were transfected with expression vectors encoding FLAG-tagged versions of either HDAC5 or an HDAC5 mutant harboring alanines in place of serines 259 and 498 (HDAC5 S259/498A) (1 μg each). Cells were stimulated with PMA for 60 min and HDAC5 distribution was determined by indirect immunofluorescence with anti-FLAG primary antibody and fluorecein-conjugated secondary antibody. HDAC5 259/498A is refractory to PMA stimulation. FIG. 1C. COS cells transfected with GFPHDAC5 encoding expression vector (1 μg) and stimulated with PMA for the indicated times. FIG. 1D. COS cells were transiently transfected with expression vectors encoding FLAG-tagged versions of HDAC5 or HDAC5 S259/498A (1 μg each). Cells were pretreated with the PKC inhibitor bisindolylmaleimide (Bis I; 10 μM) for 30 minutes and stimulated with PMA for 30 min, as indicated. Association of FLAG-HDAC5 with endogenous 14-3-3 was detected by sequential immunoprecipitation and immunoblotting.
Cell culture and transfection assays. COS cells were maintained in DMEM with FBS (10%), L-glutamine (2 mM), and penicillin-streptomycin. Transfection of COS cells was performed with Fugene 6 (Roche Molecular Biochemicals) according to manufacturer's instructions. For HDAC localization experiments, cells were treated 16-24 hours after transfection with PMA (100 nM), ionomycin […], 8-Br-cAMP (1 mM), pCPT-GMP (1 mM), or anisomycin (1 mM). Where noted, specific protein kinase inhibitors were added 30 min prior to the addition of any chemical stimulus. GFP-HDAC5 was visualized with standard fluorescent microscopic techniques. For indirect immunofluorescence of FLAG-HDAC5, COS cells were seeded on glass coverslips, transfected, and treated as above. After specific treatment, cells were fixed with buffered formalin (10%) and stained in PBS containing BSA (3%) and Nonidet P-40 (0.1%). Flag M2 antibody (Sigma) was used at a concentration of 1:200. Secondary fluoresceine-conjugated antibody (Vector Laboratories) was also used at a concentration of 1:200. Staining of cardiomyocytes for sarcomeres and atrial natriuretic factor (ANF) was performed by indirect immunofluorescence detection as above with antibodies directed against sarcomeric α-actinin (Sigma) and ANF (Peninsula Laboratories), respectively.

A further assay deals with HDAC5-bound PKD. In kind it is biochemical, rat. As to conditions: NRVMs infected with Ad-FLAG-HDAC5; PMA 30 min.
For the next assay, the system named is NRVMs. Put plainly: ANF immunostaining of cardiomyocytes (hypertrophy marker). The class given is cell-based, rat. As to conditions: PE 20 μM or PMA 100 nM, 24 hrs. The protocol: FIGS. 3A-C—Inhibition of PKC-mediated cardiac hypertrophy by signalresistant HDAC5. NRVMs were cultured on 6-well dishes and infected with adenoviruses (MOI=10) encoding a LacZ control (Ad-LacZ) or FLAG-tagged HDAC5 harboring alanines in place of serines 259 and 498 (Ad-HDAC5 S/A), which are required for 14-3-3-mediated nuclear export. Cells were treated with PE (20 μM) or PMA (100 nM) for 24 hrs prior to analysis. FIG. 3A. Cells were fixed and sarcomeres visualized by indirect immunofluorescence with primary antibody specific for α-actinin and fluorescein-conjugated secondary antibody. FIG. 3B. ANF protein was detected by indirect immunofluorescence with anti-ANF primary antibody. FIG. 3C. Total RNA was harvested from cells and subjected to dot blot analysis with radiolabeled oligonucleotides specific for the indicated transcripts. RNA levels were quantified using a phosphorimager and are depicted as -fold change relative to amounts in unstimulated cells infected with Ad-LacZ. Values were normalized to GAPDH controls.
Cell culture and transfection assays. COS cells were maintained in DMEM with FBS (10%), L-glutamine (2 mM), and penicillin-streptomycin. Transfection of COS cells was performed with Fugene 6 (Roche Molecular Biochemicals) according to manufacturer's instructions. […]

Assay [2] has as its system association of 14-3-3 with HDAC5. Put plainly: Co-immunoprecipitation of FLAG-HDAC5 with endogenous 14-3-3 in COS cells. The class given is cell-based. As to conditions: FLAG-HDAC5, PMA 30 min. The protocol: as §1, with “COS cells were transiently transfected with expression vectors encoding FLAG-tagged versions of HDAC5 or HDAC5 S259/498A (1 μg each). Cells were pretreated with the PKC inhibitor bisindolylmaleimide (Bis I; 10 μM) for 30 minutes and stimulated with PMA for 30 min, as indicated.” left out
Co-immunoprecipitation assays. […] Associated PKD was detected by immunoblotting with rabbit polyclonal antibodies against either PKD-1, PKD-1 phosphorylated at serines 744 and 748, or PKD-1 phosphorylated at serine 916 (Cell Signaling Technologies) were employed at 1:1000 dilutions.

The test system of another assay is PKD. The assay is described as follows: In vitro kinase assay with FLAG-HDAC5 immunoprecipitated from COS cells co-transfected with PKD. In kind it is cell-based. As to conditions: PMA 30 min. From the text: FIGS. 5A-E—Protein kinase D is an HDAC5 kinase. FIG. 5A. Amino acid sequences surrounding the regulatory phosphorylation sites of class II HDACs. NLS: nuclear localization signal; HDAC domain: deacetylase catalytic domain. The consensus target site for PKD is shown. Leucine at position −5 relative the phosphorylation site is required for optimal PKD-directed phosphorylation of other proteins. FIG. 5B. COS cells were transfected with an expression vector encoding GFP fused to HDAC5 harboring glycines in place of leucines 254 and 493 (L254/493G). Twenty-four hrs post-transfection, cells were left untreated (control) or stimulated with PMA for 30 minutes. FIG. 5C. […] HDAC5 localization was determined 24 hrs post-transfection. FIG. 5D. […] Twenty-four hrs post-transfection, cells were treated with PMA or vehicle control for 30 min. FLAG-HDAC5 was immunoprecipitated from whole-cell protein lysates and either incorporated into an in vitro kinase assay (IVK) or resolved by SDS-PAGE for western blot analysis to detect associated PKD, as indicated. Phosphorylated HDAC5 was resolved by SDS-PAGE and detected by autoradiography. FIG. 5E. Mammalian two-hybrid assay. […]

For `CCCCCCCCCCCCCC(=O)O[C@@H]1[C@@H](C)[C@@]2(O)[C@@H](C=C(CO)C[C@]3(O)C(=O)C(C)=C[C@@H]23)[C@@H]2C(C)(C)[C@]12OC(C)=O` [PMA, Phorbol 12-myristate 13-acetate], in assay [1] (COS cells transfected with GFP-HDAC5, 60 min after addition of compounds), the “stimulation of nuclear export of GFP-HDAC5” value is “complete relocalization of GFP-HDAC5 from the nucleus to the cytoplasm; also recorded: stimulated nuclear export of GFP-HDAC5; also recorded: more potent stimulator of export than ionomycin”. Also, in assay [1] (COS cells, GFP-HDAC5), the “time to complete HDAC5 nuclear export following addition of PMA” value is reported as at most 30 min and the “time to initiation of HDAC5 nuclear export following addition of PMA” value is given as at most 15 min. Moreover, the “HDAC5 phosphorylation after treatment of cells with PMA” value with HDAC5-bound PKD is reported as “Increased HDAC5 phosphorylation”. Further, the ANF protein expression result with NRVMs is “prominent perinuclear ANF protein expression”. Moreover, the “association of 14-3-3 with HDAC5” value in assay [2] is listed as “enhanced”. The “HDAC5 phosphorylation after PMA, activated PKD S/E co-transfected” value in the assay on PKD (FLAG-HDAC5 + PKD S/E) is given as “enhanced phosphorylation of HDAC5”. In addition, the “HDAC5 phosphorylation after PMA, wild-type PKD co-transfected” value in the assay with PKD (FLAG-HDAC5 + PKD) was “increased the degree of HDAC5 phosphorylation”.
